Tests used:
[1] = target: Recombinant human TDO comprising amino acids 19-407 (Homo sapiens (Human), UniProt P48775); experiment: TDO2 enzymatic assay (TDO inhibitory activity); format: biochemical; settings: 15 nM enzyme, 200 μM L-tryptophan, pH7, 30 min pre-incubation, NFK quantified by LCMS; mean values if measured multiple times; read-out: hTDO activity (IC50 in nM)
Experimental: 2) Testing Compounds for TDO Inhibitory Activity in a TDO2 Enzymatic Assay:
Recombinant human TDO comprising amino acids 19-407 with a N-terminal hexahistidine tag expressed in E. coli and purified to homogeneity is incubated at a final concentration of 15 nM in assay buffer consisting of 75 mM phosphate buffer at pH7 supplemented with 100 μM ascorbic acid, 50 U/ml Catalase, 0.01% BSA, and 0.01% Tween 20 (protocol modified from Seegers et al, JBS 2014). Example compounds are serially diluted in DMSO, further diluted in phosphate buffer, and added to the reaction mixture at final concentrations ranging from 10 μM to 0.5 nM. The final DMSO concentration is 0.6%. Following a pre-incubation of 30 minutes at RT, the reaction is started by the addition of L-tryptophan at a final concentration of 200 μM in assay buffer. After 30 minutes of incubation at RT, 3 μL of the reaction mixture are transferred to a 384 deep well plate containing 25 μL of deionized water. 100 μl of 200 nM L-Tryptophan-(indole-d5) in cold 100% methanol are added followed by a 10 minutes centrifugation at 4,000 rpm at 4° C. An additional 75 μL of deionized water are then added and followed by a 10 minutes centrifugation at 4,000 rpm at 4° C. The product of the reaction N′-Formylkynurenine (NFK) is quantified by LCMS and normalized to the L-Tryptophan-(indole-d5) signal. Samples with 0.6% DMSO (0% effect) and a TDO/IDO inhibitor (100% effect) are used as control samples to set the parameters for the non-linear regression necessary for the determination of the half-maximal inhibitory concentration (IC50) for each compound. For each compound concentration the percentage of activity compared to 0% and 100% effect is calculated as average±STDEV (each concentration measured in duplicate). IC50 values and curves are generated with XLfit software (IDBS) using Dose-Response One Site model 203 (four parameter logistic curve model). When compounds are measured multiple times, mean values are given.

[2] = target: Recombinant full-length human IDO1 (Homo sapiens (Human), UniProt P14902); experiment: IDO1 enzymatic assay (IDO inhibitory activity); format: biochemical; settings: 2 nM enzyme, 5 μM L-tryptophan, pH6.5, 30 min pre-incubation, NFK quantified by LCMS; mean values if measured multiple times; read-out: hIDO activity (IC50 in nM)
Chain of Recombinant full-length human IDO1 (P14902 whole entry): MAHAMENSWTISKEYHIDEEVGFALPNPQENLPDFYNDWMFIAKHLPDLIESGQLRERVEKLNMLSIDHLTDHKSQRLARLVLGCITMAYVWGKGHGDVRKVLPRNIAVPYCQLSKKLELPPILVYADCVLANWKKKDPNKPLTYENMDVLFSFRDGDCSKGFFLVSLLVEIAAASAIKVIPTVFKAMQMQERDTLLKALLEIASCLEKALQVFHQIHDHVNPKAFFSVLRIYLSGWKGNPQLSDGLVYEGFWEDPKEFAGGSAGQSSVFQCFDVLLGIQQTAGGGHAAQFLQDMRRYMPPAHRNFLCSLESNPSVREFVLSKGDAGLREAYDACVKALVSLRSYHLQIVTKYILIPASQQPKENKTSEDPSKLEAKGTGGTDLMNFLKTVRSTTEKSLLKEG
Experimental: 1) Testing Compounds for IDO Inhibitory Activity in an IDO1 Enzymatic Assay:
Recombinant full-length human IDO1 with a N-terminal hexahistidine tag expressed in E. coli and purified to homogeneity is incubated at a final concentration of 2 nM in assay buffer consisting of 37.5 mM phosphate buffer at pH6.5 supplemented with 10 mM sodium L-ascorbate, 0.45 μM methylene blue, 50 U/ml catalase, 0.01% BSA, and 0.01% Tween 20 (protocol modified from Seegers et al, JBS 2014). Example compounds are serially diluted in DMSO, further diluted in phosphate buffer, and added to the enzyme at final concentrations ranging from 10 μM to 0.5 nM. The final DMSO concentration is 0.6%. Following a pre-incubation of 30 minutes at RT, the reaction is started by the addition of L-tryptophan at a final concentration of 5 μM in assay buffer. After 30 minutes of incubation at RT, 3 μL of the reaction mixture are transferred to a 384 deep well plate containing 25 μL of deionized water. 100 μl of 200 nM L-Tryptophan-(indole-d5) in cold 100% methanol are added followed by a 10 minutes centrifugation at 4,000 rpm at 4° C. An additional 75 μL of deionized water are then added and followed by a 10 minutes centrifugation at 4,000 rpm at 4° C. The product of the reaction N′-Formylkynurenine (NFK) is quantified by LCMS and normalized to the L-Tryptophan-(indole-d5) signal. Samples with 0.6% DMSO (0% effect) and a TDO/IDO inhibitor (100% effect) are used as control samples to set the parameters for the non-linear regression necessary for the determination of the half-maximal inhibitory concentration (IC50) for each compound. For each compound concentration the percentage of activity compared to 0% and 100% effect is calculated as average ±STDEV (each concentration measured in duplicate). IC50 values and curves are generated with XLfit software (IDBS) using Dose-Response One Site model 203 (four parameter logistic curve model). When compounds are measured multiple times, mean values are given.

Chain of Recombinant human TDO comprising amino acids 19-407 (P48775 19-406 limits assumed): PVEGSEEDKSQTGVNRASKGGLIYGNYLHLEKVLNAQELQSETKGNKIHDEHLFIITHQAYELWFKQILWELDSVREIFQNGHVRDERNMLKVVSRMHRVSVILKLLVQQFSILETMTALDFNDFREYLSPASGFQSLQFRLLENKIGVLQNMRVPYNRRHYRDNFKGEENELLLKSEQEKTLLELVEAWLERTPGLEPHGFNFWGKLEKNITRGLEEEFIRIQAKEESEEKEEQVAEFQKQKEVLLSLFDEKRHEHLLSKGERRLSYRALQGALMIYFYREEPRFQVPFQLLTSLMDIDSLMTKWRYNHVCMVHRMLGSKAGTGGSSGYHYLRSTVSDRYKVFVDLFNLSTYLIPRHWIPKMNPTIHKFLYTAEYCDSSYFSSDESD

IC50 [1] [nM] | IC50 [2] [nM] | SMILES
907 | 25.1 | OC(c1c(C2CC2)sc2cncn12)C1CCC1 (racemic) [Example 43, rac-Cyclobutyl-(2-cyclopropyl-imidazo[5,1-b]thiazol-3-yl)-methanol]
383 | 15.8 | CC1CCC(C(O)c2c(C3CC3)sc3cncn23)CC1 (racemic) [Example 44, rac-(2-Cyclopropyl-imidazo[5,1-b]thiazol-3-yl)-(4-methyl-cyclohexyl)-methanol]
583 | 35.7 | CCC1CCC(C(O)c2c(C3CC3)sc3cncn23)CC1 (racemic) [Example 45, rac-(2-Cyclopropyl-imidazo[5,1-b]thiazol-3-yl)-(4-ethyl-cyclohexyl)-methanol]
473 | 11.4 | OC(c1c(C2CC2)sc2cncn12)C1CCCC1 (racemic) [Example 46, rac-Cyclopentyl-(2-cyclopropyl-imidazo[5,1-b]thiazol-3-yl)-methanol]
638 | 50.3 | CC1CCC(CC(O)c2c(C3CC3)sc3cncn23)CC1 (racemic) [Example 49, rac-1-(2-Cyclopropyl-imidazo[5,1-b]thiazol-3-yl)-2-(4-methyl-cyclohexyl)-ethanol]
989 | 50.5 | OC(c1ccccc1)c1c(C2CC2)sc2cncn12 (racemic) [Example 50, rac-(2-Cyclopropyl-imidazo[5,1-b]thiazol-3-yl)-phenyl-methanol]
1460 | 48.4 | Cc1ccc(C(O)c2c(C3CC3)sc3cncn23)cc1 (racemic) [Example 51, rac-(2-Cyclopropyl-imidazo[5,1-b]thiazol-3-yl)-p-tolyl-methanol]
22.3 | 64.8 | Cc1cccc(C(O)c2c(C3CC3)sc3cncn23)c1 (racemic) [Example 52, rac-(2-Cyclopropyl-imidazo[5,1-b]thiazol-3-yl)-m-tolyl-methanol]
1530 | 60.1 | CCc1ccc(C(O)c2c(C3CC3)sc3cncn23)cc1 (racemic) [Example 53, rac-(2-Cyclopropyl-imidazo[5,1-b]thiazol-3-yl)-(4-ethyl-phenyl)-methanol]
1850 | 120 | CCc1cccc(C(O)c2c(C3CC3)sc3cncn23)c1 (racemic) [Example 54, rac-(2-Cyclopropyl-imidazo[5,1-b]thiazol-3-yl)-(3-ethyl-phenyl)-methanol]
2270 | 86.9 | COc1ccc(C(O)c2c(C3CC3)sc3cncn23)cc1 (racemic) [Example 55, rac-(2-Cyclopropyl-imidazo[5,1-b]thiazol-3-yl)-(4-methoxy-phenyl)-methanol]
3310 | 251 | COc1cccc(C(O)c2c(C3CC3)sc3cncn23)c1 (racemic) [Example 56, rac-(2-Cyclopropyl-imidazo[5,1-b]thiazol-3-yl)-(3-methoxy-phenyl)-methanol]
829 | 433 | Cc1sc2cncn2c1C(O)c1cccs1 (racemic) [Example 57, rac-(2-Methyl-imidazo[5,1-b]thiazol-3-yl)-thiophen-2-yl-methanol]
> 10200 | 1430 | Cc1sc2cncn2c1C(O)c1ccc(N(C)C)cc1 (racemic) [Example 58, rac-(4-Dimethylamino-phenyl)-(2-methyl-imidazo[5,1-b]thiazol-3-yl)-methanol]
881 | 249 | OC(Cc1ccccc1)c1c(C2CC2)sc2cncn12 (racemic) [Example 59, rac-1-(2-Cyclopropyl-imidazo[5,1-b]thiazol-3-yl)-2-phenyl-ethanol]
455 | 287 | OC(Cc1c(Cl)cccc1Cl)c1c(C2CC2)sc2cncn12 (racemic) [Example 60, rac-1-(2-Cyclopropyl-imidazo[5,1-b]thiazol-3-yl)-2-(2,6-dichloro-phenyl)-ethanol]
578 | 431 | Cc1ccccc1CC(O)c1c(C2CC2)sc2cncn12 (racemic) [Example 61, rac-1-(2-Cyclopropyl-imidazo[5,1-b]thiazol-3-yl)-2-o-tolyl-ethanol]
7160 | 3150 | COc1cccc(CC(O)c2c(C)sc3cncn23)c1 (racemic) [Example 62, rac-2-(3-Methoxy-phenyl)-1-(2-methyl-imidazo[5,1-b]thiazol-3-yl)-ethanol]
564 | 27 | OC(c1c(C(F)(F)F)sc2cncn12)C1CCCCC1 (racemic) [Example 63, rac-Cyclohexyl-(2-trifluoromethyl-imidazo[5,1-b]thiazol-3-yl)-methanol]
3180 | 69 | OC(CC1CCCCC1)c1c(C(F)(F)F)sc2cncn12 (racemic) [Example 64, rac-2-Cyclohexyl-1-(2-trifluoromethyl-imidazo[5,1-b]thiazol-3-yl)-ethanol]
3510 | 325 | OC(Cc1cccc2ccccc12)c1c(C2CC2)sc2cncn12 (racemic) [Example 67, rac-1-(2-Cyclopropyl-imidazo[5,1-b]thiazol-3-yl)-2-naphthalen-1-yl-ethanol]
29.3 | 14.4 | C=Cc1sc2cncn2c1C(O)C1CCCCC1 (racemic) [Example 68, rac-Cyclohexyl-(2-vinyl-imidazo[5,1-b]thiazol-3-yl)-methanol]
746 | 72.1 | OC(c1c(C2CC2)sc2cncn12)C1CCC2(CCCC2)CC1 (racemic) [Example 70, rac-(2-Cyclopropyl-imidazo[5,1-b]thiazol-3-yl)-spiro[4.5]dec-8-yl-methanol]
263 | 28.5 | OC(CC1CCC(F)(F)CC1)c1c(C2CC2)sc2cncn12 (racemic) [Example 71, rac-1-(2-Cyclopropyl-imidazo[5,1-b]thiazol-3-yl)-2-(4,4-difluoro-cyclohexyl)-ethanol]
1470 | 102 | CC(C)C1CCC(C(O)c2c(C3CC3)sc3cncn23)CC1 (racemic) [Example 72, rac-(2-Cyclopropyl-imidazo[5,1-b]thiazol-3-yl)-(4-isopropyl-cyclohexyl)-methanol]
3110 | 43.7 | OC(c1c(C2CC2)sc2cncn12)C1CCC(c2ccccc2)CC1 (racemic) [Example 73, rac-(2-Cyclopropyl-imidazo[5,1-b]thiazol-3-yl)-(4-phenyl-cyclohexyl)-methanol]
4330 | 950 | CC(C)(C)C1CCC(CC(O)c2c(C3CC3)sc3cncn23)CC1 (racemic) [Example 74, rac-2-(4-tert-Butyl-cyclohexyl)-1-(2-cyclopropyl-imidazo[5,1-b]thiazol-3-yl)-ethanol]
772 | 43.3 | OC(c1c(C2CC2)sc2cncn12)C1CCC(C(F)(F)F)CC1 (racemic) [Example 81, rac-(2-Cyclopropyl-imidazo[5,1-b]thiazol-3-yl)-(4-trifluoromethyl-cyclohexyl)-methanol]

Source: patent US11267824B2, “Inhibitors of indoleamine 2,3-dioxygenase and/or tryptophan 2,3-dioxygenase” (IDORSIA PHARMACEUTICALS LTD, priority 2017, dated 2022)
